The text below walks through data of patent US20140295045A1, “Pyridine Derivatives With Umami Flavour” (Givaudan S.A., priority 2009, published 2014).

Common to all, as to format: in vivo, human
Assay [1] relates to trained sensory panel. As to the kind of experiment: Testing of compounds: tasting of 0.3% NaCl solution with 2 ppm compound by trained sensory panel. To be noted: 2 ppm compound in a solution of 0.3% NaCl; trained sensory panel of 20 women. The procedure: Various compounds prepared in the previous examples were tested. Two solutions were prepared: A: a solution of 0.3% NaCl, B: a solution of 0.3% NaCl and 2 ppm compound as per Table 1. The samples were tasted by a trained sensory panel composed of 20 women aged between 30 and 60.

Assay [2] relates to bench-top tasting panel. Nature of the assay: Model chicken broth (no MSG added, 0.3% sugar added), blind umami ranking. As to conditions: for Level preferred by panelists in this base: model chicken broth, 0.3% sugar added, % by weight. The procedure: The following compositions are made and tested. Using a bench-top tasting panel (consisting of 10 panelists—flavorists, application experts), panelists were asked to record the sensory attribute differences (umami) between the samples. All samples were tasted blind and ranked on umami. Model Chicken Broth—no MSG Added, 0.3% Sugar Added The model chicken broth powder was prepared from 11.9 g chicken fat, 23.81 g salt, 14.29 g sugar, 0.95 g onion powder, 49.01 g chicken powder, 0.04 g turmeric powder. To prepare the model chicken broth 2.0 g of powder was mixed 98.0 g hot water.

Assay [3] concerns bench-top tasting panel. Nature of the assay: Model chicken broth (no MSG added, no sugar added), blind umami ranking. As to conditions: for Level preferred by panelists in this base: model chicken broth, no MSG added, % by weight. The procedure:
The following compositions are made and tested. Using a bench-top tasting panel (consisting of 10 panelists—flavorists, application experts), panelists were asked to record the sensory attribute differences (umami) between the samples. All samples were tasted blind and ranked on umami. Model Chicken Broth—no MSG Added, no Sugar Added The model chicken broth powder was prepared from 11.9 g chicken fat, 23.81 g salt, […], 0.95 g onion powder, 49.01 g chicken powder, 0.04 g turmeric powder. To prepare the model chicken broth 2.0 g of powder was mixed 98.0 g hot water.

Assay [4] relates to bench-top tasting panel. As to the kind of experiment: Commercial organic chicken broth, blind umami ranking. As to conditions: for Level preferred by panelists in this base: commercial organic chicken broth, % by weight. An excerpt: The following compositions are made and tested. Using a bench-top tasting panel (consisting of 10 panelists—flavorists, application experts), panelists were asked to record the sensory attribute differences (umami) between the samples. All samples were tasted blind and ranked on umami. Commercial Organic Chicken Broth (Swanson's Certified Organic Chicken Broth—No added MSG, contains about 0.4% sugars)

For assay [5], the system named is small group of flavourists. As to the kind of experiment: Tomato soup formulation tasting against reference soup. To be noted: 1.5 ppm compound in tomato soup containing MSG; 4 flavourists. The procedure: A tomato soup mix was prepared from 9.4 g sodium chloride, 1 g MSG, 0.08 g ribonucleotides (ex yeast), 32 g tomato powder (ex Spreda), 25.1 g glucose, 21 g starch (Ultrasperse™ 5 ex National Starch), 5 g palm fat powder, 3 g yeast powder, 1 g onion powder, 0.15 g carrot powder, 0.05 g ground white pepper, 0.3 g celery extract powder, 0.05 g ground laurel leaf powder, and 1.85 g sucrose. 25 g of the well-mixed ingredients was added to 250 g of boiling water and stirred until completely dissolved, to give a reference soup.
The reference soup was compared with a batch of the same soup containing 1.5 ppm of 1-(2-hydroxy-4-isobutoxyphenyl)-3-(pyridine-2-yl)propan-1-one.

Assay [6] relates to small group of flavourists. Nature of the assay: Tomato ketchup tasting. As to conditions: 2 ppm compound in tomato ketchup; 4 flavourists. The procedure:
A tomato ketchup was prepared from 19% tomato paste (28-30% dry weight), 8% vinegar (15%), 3% sodium chloride, 20% sugar and 50% water.
To one-half of the batch was added 2 ppm of 1-(2-hydroxy-4-methoxyphenyl)-3-(pyridin-2-yl)propan-1-one.

Assay [7] has as its system trained sensory panel. As to the kind of experiment: Potato chips tasting. The procedure:
Plain potato chips were prepared.
One part was flavoured with 1.2% sodium chloride (sample A),
One part was flavoured with 1.2% sodium chloride and 0.3% MSG (sample B),
One part was flavoured with 1.2% sodium chloride and 2 ppm of 1-(2-hydroxy-4-methylphenyl)-3-(pyridin-2-yl)propan-1-one (sample C).
(§1) The samples were tasted by a trained sensory panel composed of 20 women aged between 30 and 60.

Assay [8] relates to trained sensory panel. Nature of the assay: Comparative test with MSG: tasting of 0.3% NaCl / 0.03% MSG solution with compound. As to conditions: 5 ppm compound in 0.3% NaCl and 0.03% MSG; Solution A without compound: salty, umami. The procedure: Two solutions were prepared:
A: a solution of 0.3% NaCl and 0.03% MSG,
B: a solution of 0.3% NaCl, 0.03% MSG and 5 ppm of 1-(4-hydroxybenzo[d][1,3]dioxol-5-yl)-3-(pyridin-2-yl)propan-1-one.
as §1

Where [9] appears, read: 0.002% compound in model chicken broth, sugar added, Control 6th.
[10] abbreviates: 0.001% compound in model chicken broth, Control 5th.
[11] abbreviates: 0.002% compound in commercial organic chicken broth, Control 5th.

As to `Cc1cc(C)c(O)c(C(=O)CCc2ccccn2)c1` [1-(2-hydroxy-3,5-dimethylphenyl)3-(pyridine-2-yl)propan-1-one], the Taste description entry in assay [1] is given as “Umami”.

As to `Cc1cc(O)c(C(=O)CCc2ccccn2)cc1C` [1-(2-hydroxy-4,5-dimethylphenyl)-3-(pyridine-2-yl)propan-1-one], in assay [1], the Taste description result was “Umami, sweet, savoury, salty”. For the same compound, the “Performance when evaluating for umami” value in assay [2] (0.002% compound in model chicken broth, sugar added) is recorded as “performed well”. Further, the “Finishing position in blind ranking of 6 samples on umami” value (“Finishing position in blind ranking” for short) in assay [2] (setting [9]) came out at 2. In assay [2], the “Level preferred by panelists in this base” value (from here on “Level preferred by panelists”) came out at 0.002%.

As to `CC(C)COc1ccc(C(=O)CCc2ccccn2)c(O)c1` [1-(2-hydroxy-4-isobutoxyphenyl)-3-(pyridine-2-yl)propan-1-one], the Taste description entry in assay [1] was “Umami, sweet, salty, bouillon, lingering,”. Further, the entries for the “Finishing position in blind ranking” value in assay [3] (setting [10]), in assay [4] (setting [11]) and in assay [2] (setting [9]) were 4, 3 and 4, respectively. Further, the figures for the “Level preferred by panelists” value in assay [3], in assay [4] and in assay [2] were 0.001%, 0.002% and 0.002%, respectively. Besides, in assay [5], the “Taste of test soup compared with reference soup” value is “more umami, had a clear lingering effect, was more salty and was more complex”.

For the compound `COc1ccc(C(=O)CCc2ccccn2)c(O)c1` [1-(2-hydroxy-4-methoxyphenyl)-3-(pyridin-2-yl)propan-1-one], the “Taste of test ketchup compared with ketchup without the compound” value in assay [6] was “clearly more umami, more salty and had a pleasant savoury note”. For the same compound, in assay [1], the Taste description entry was “umami, sweet, salty, longlasting”. Besides, the figures for the “Finishing position in blind ranking” value in assay [3] (setting [10]), in assay [4] (setting [11]) and in assay [2] (setting [9]) were 2, 4 and 3, respectively. Also, the “Level preferred by panelists” value in assay [3] was determined as 0.001%; in assay [4], 0.002%; in assay [2], 0.002%.

Turning to `Cc1ccc(C(=O)CCc2ccccn2)c(O)c1` [1-(2-hydroxy-4-methylphenyl)-3-(pyridin-2-yl)propan-1-one], the Taste description result in assay [1] is listed as “Umami, sweet, licorice, savoury”. Besides, the “Taste description (sample C)” value in assay [7] (potato chips with 1.2% sodium chloride and 2 ppm compound, sample A with salt only: salty) is on record as “salty, strong umami, long lasting, savoury, bouillon”. Besides, the Panel preference entry in assay [7] (potato chips, sample C (1.2% sodium chloride, 2 ppm compound) versus sample A (salt) and sample B (salt, 0.3% MSG)) is “preferred sample C over the other two samples”. Moreover, the “Finishing position in blind ranking” value in assay [3] (0.0005% compound in model chicken broth, Control 5th) was determined as 3; in assay [4] (0.001% compound in commercial organic chicken broth, Control 5th), 2; in assay [2] (0.001% compound in model chicken broth, sugar added, Control 6th) it was 5. Moreover, the “Level preferred by panelists” value in assay [3] is on record as 0.0005%; in assay [4] it was 0.001%; in assay [2] it was 0.001%.

Turning to `Cc1ccc(O)c(C(=O)CCc2ccccn2)c1` [1-(2-hydroxy-5-methylphenyl)-3-(pyridine-2-yl)propan-1-one], the Taste description result in assay [1] is “Umami”.

As to `Cc1cccnc1CCC(=O)c1ccccc1O` [1-(2-hydroxyphenyl)-3-(3-methylpyridin-2-yl)propan-1-one], the Taste description result in assay [1] is on record as “Slightly umami, savoury, meaty”.

As for `Cc1ccc(CCC(=O)c2ccccc2O)nc1` [1-(2-hydroxyphenyl)-3-(5-methylpyridin-2-yl)propan-1-one], the Taste description entry in assay [1] is “Slightly umami, some green aftertaste,”.

As for `COc1ccccc1C(=O)CCc1ccccn1` [1-(2-methoxyphenyl)-3-(pyridin-2-yl)propan-1-one], the Taste description entry in assay [1] is on record as “Umami, slightly bitter”.

Turning to `O=C(CCc1ccccn1)c1ccc(OC2CCCC2)cc1O` [1-(4-(cyclopentyloxy)-2-hydroxyphenyl)-3-(pyridine-2-yl)propan-1-one], the Taste description result in assay [1] is on record as “Umami”.

On to `O=C(CCc1ccccn1)c1ccc(OCC2CC2)cc1O` [1-(4-cyclopropylmethoxy)-2-hydroxyphenyl)-3-(pyridine-2-yl)propan-1-one], for which the Taste description entry in assay [1] is recorded as “Umami”.

For `CCOc1ccc(C(=O)CCc2ccccn2)c(O)c1` [1-(4-ethoxy-2-hydroxyphenyl)-3-(pyridine-2-yl)propan-1-one], the Taste description result in assay [1] was “Umami, floral”.

As to `O=C(CCc1ccccn1)c1ccc2c(c1O)OCO2` [1-(4-hydroxybenzo[d][1,3]dioxol-5-yl)-3-(pyridin-2-yl)propan-1-one], the Taste description result in assay [1] is “Clearly umami, slightly yeasty, bouillon”. In addition, in assay [8], the “Taste description (Solution B)” value is listed as “salty, umami, more bouillon-like, more complex, less sweet”.

On to `CCc1ccc(O)c(C(=O)CCc2ccccn2)c1` [1-(5-ethyl-2-hydroxyphenyl)-3-(pyridine-2-yl)propan-1-one], for which the Taste description entry in assay [1] is recorded as “Umami, slightly bitter”.

As for `N[C@@H](CCC(=O)O)C(=O)[O-].[Na+]` [MSG, monosodium glutamate, reference compound], the “Taste description (sample B)” value in assay [7] (potato chips with 1.2% sodium chloride and 0.3% MSG) was “salty and umami”. Further, the “Finishing position in blind ranking” value in assay [3] (0.05% MSG (Reference) in model chicken broth) is listed as “highest umami”; in assay [4] (0.05% MSG (Reference) in commercial organic chicken broth) it was “highest umami”; in assay [2] (0.05% MSG (Reference) in model chicken broth, sugar added), “highest umami”.
